Data taken from patent US7598260B2, “CDK-inhibitory pyrimidines, their production and use as pharmaceutical agents” (Bayer Schering Pharma Aktiengesellschaft, priority 2001, dated 2009).
Where two headings read alike, the source gives them in different places.

Columns and labels:
[1] = test system: human tumor cells (as indicated); assay: Proliferation assay, crystal violet staining, other human tumor cells as indicated in the tables; format: cell-based; details: 4 days incubation
Method: (§1) Cultivated human tumor cells (as indicated) are flattened out at a density of 5000 cells/measuring point in a 96-hole multititer plate in 200 μl of the corresponding growth medium. After 24 hours, the cells of one plate (zero-point plate) are colored with crystal violet (see below), while the medium of the other plates is replaced by fresh culture medium (200 μl), to which the test substances are added at various concentrations (0 μm, as well as in the range of 0.01-30 μm; the final concentration of the solvent dimethyl sulfoxide is 0.5%). The cells are incubated for 4 days in the presence of test substances. The cell proliferation is determined by coloring the cells with crystal violet: the cells are fixed by adding 20 μl/measuring point of a 11% glutaric aldehyde solution for 15 minutes at room temperature. After three washing cycles of the fixed cells with water, the plates are dried at room temperature. The cells are colored by adding 100 μl/measuring point of a 0.1% crystal violet solution (pH is set at 3 by adding acetic acid). After three washing cycles of the colored cells with water, the plates are dried at room temperature. The dye is dissolved by adding 100 μl/measuring point of a 10% acetic acid solution. The extinction is determined by photometry at a wavelength of 595 nm. The change of cell growth, in percent, is calculated by standardization of the measured values to the extinction values of the zero-point plate (=0%) and the extinction of the untreated (0 μm) cells (=100%).

[2] = target: T1, CDK2/CycE (Homo sapiens, UniProt P24941); assay: CDK2/CycE kinase assay (enzyme test); format: biochemical; details: read-out: Inhibition IC50 [nM] CDK2/CycE
T1 construct: GST; purchased Dr. Dieter Marmé, Klinik für Tumorbiologie, Freiburg; host or cells: baculovirus-infected Sf9 insect cells
Method: Recombinant CDK2- and CycE-GST-fusion proteins, purified from baculovirus-infected insect cells (Sf9), are obtained by Dr. Dieter Marmé, Klinik für Tumorbiologie [Clinic for Tumor Biology], Freiburg. Histone IIIS, which is used as a kinase substrate, is purchased by the Sigma Company.
The reaction was is stopped by adding EDTA solution (250 mmol, pH 8.0, 14 μl/measuring point).
From each reaction batch, 10 μl applied to P30 filter strips (Wallac Company), and non-incorporated ^33P-ATP is removed by subjecting the filter strips to three washing cycles for 10 minutes each in 0.5% phosphoric acid. After the filter strips are dried for one hour at 70° C., the filter were are covered with scintillator strips (MeltiLex™ A, Wallac Company) and baked for one hour at 90° C. The amount of incorporated ^33P (substrate phosphorylation) is determined by scintillation measurement in a gamma-radiation measuring device (Wallac).

[3] = Solubility (Löslichkeit, g/l); format: physicochemical; details: for Löslichkeit: comparison with known compounds
[4] = test system: MCF-7 cells; assay: Proliferation assay, crystal violet staining (cell test), MCF-7; format: cell-based; details: Homo sapiens
Method: as §1

[5] = NCI-H460, 96 h, H460 cells, read-out: Proliferation IC50 [μM] H460
[6] = 96 h, MCF7 cells, 4 days incubation, read-out: Proliferation IC50 [μM] MCF7
[7] = DU-145, 96 h, DU145 cells, read-out: Proliferation IC50 [μM] DU145
[8] = HCT-116, 96 h, HCT116 cells, read-out: Proliferation IC50 [μM] HCT116
[9] = MCF7, MCF-7 cells, comparison with known compounds, read-out: MCF-7 IC50

Row | Structure (SMILES) | IC50 [1, 5] | IC50 [2] | Sw [3] | IC50 [4, 6] | IC50 [1, 7] | IC50 [1, 8] | Löslichkeit [3] | IC50 [4, 9]
1 | C#CCOc1nc(Nc2ccc(O)cc2)ncc1Br [Example 6, 4-[[5-Bromo-4-(2-propynyloxy)-2-pyrimidinyl]amino]-phenol] | 6 µM | 70 nM | 0.008 g/L | 4 µM |  |  |  | 
2 | C#CCNc1nc(Nc2cccc(S(N)(=O)=O)c2)ncc1Br [Example 36] | 0.6 µM | 30 nM | 0.018 g/L | 0.4 µM | 0.6 µM | 0.5 µM |  | 
3 | NS(=O)(=O)c1ccc(Nc2ncc(Br)c(NC(CO)CO)n2)cc1 [Example 9] |  | 7 nM |  | 0.9 µM | 3 µM | 3 µM | 0.009 g/L | 0.9 µM
4 | COC[C@H](C)Nc1nc(Nc2ccc(S(N)(=O)=O)cc2)ncc1Br [Example 7] | 1.5 µM | 6 nM | 0.028 g/L | 0.7 µM | 0.5 µM | 1.2 µM |  | 
5 | C#CCOc1nc(Nc2ccc(OCC3CO3)cc2)ncc1Br (stereo not drawn) [Example 40] | 3 µM | 20 nM | 0.002 g/L | 1 µM | 9 µM | 3 µM |  | 
6 | C#CCNc1nc(Nc2ccc(S(N)(=O)=O)cc2)ncc1Cl [Example 44] | 0.4 µM | 8 nM | 0.005 g/L | 1.2 µM | 0.3 µM | 0.4 µM |  | 
7 | CC(C)[C@H](CO)Nc1nc(Nc2ccc(S(=O)(=O)NCCO)cc2)ncc1Br [Example 48] | 1 µM | 4 nM | 0.042 g/L | 0.2 µM | 0.3 µM | 0.4 µM | 0.042 g/L | 0.2 µM

Other lines, results leading:

Row | IC50 [1, 5] | IC50 [2] | Sw [3] | IC50 [4, 6] | IC50 [1, 7] | IC50 [1, 8] | Löslichkeit [3] | IC50 [4, 9] | Structure (SMILES)
8 | 1.5 µM | 70 nM | 0.017 g/L | 1.2 µM | 1.2 µM | 1.1 µM |  |  | C#CCNc1nc(Nc2ccc([S+](C)[O-])cc2)ncc1Br (stereo not drawn) [Example 25]
9 | 1.7 µM | 10 nM | 0.0094 g/L | 2 µM | 0.5 µM | 1.2 µM |  |  | CCC(Nc1nc(Nc2ccc(S(N)(=O)=O)cc2)ncc1Br)C(=O)OC (stereo not drawn) [Example 45]
10 | 1.5 µM | 40 nM | 0.003 g/L | 1.2 µM | 1.5 µM | 1.5 µM |  |  | C#CCOc1nc(Nc2ccc(C(C)=O)cc2)ncc1Br [Example 22, 1-[4-[(5-Bromo-4-(2-propynyloxy)-2-pyrimidinyl)amino]phenyl]-ethanone]
11 | 1.6 µM | 200 nM | 0.0005 g/L | 0.2 µM | 2 µM | 1.2 µM |  |  | CC(=O)c1ccc(Nc2ncc(Br)c(NCC3CC3)n2)cc1 [Example 52]
